The values that follow come from PubChem BioAssay (NCI).

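1) Cells in 96-well plates. 2) Compound, 48 h, 5 concentrations. 3) Linear interpolation between surrounding doses. 4) Unreached endpoint = highest concentration. GI50: concentration for 50% inhibition of growth. TGI denotes the concentration required for complete inhibition of growth.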 Bounds are passed on as bounds.

Some test systems named below: CCRF-CEM leukemia; HOP-62 NSCLC; OVCAR-3 ovarian; OVCAR-4 ovarian; OVCAR-5 ovarian; RPMI-8226 leukemia; SF-268 CNS; SNB-75 CNS; U251 CNS; EKVX NSCLC.
Assay in all cases: DTP human tumour cell line panel, 48 h

In general, TGI refers to the concentration at which net growth stops. Low values mean greater sensitivity of the cells, high ones lower sensitivity of the cells. In the case of `CS(=O)(=O)OCCN1CCN(C(=O)c2cccc3c(Nc4ccc(S(=O)(=O)N=C(N)N)cc4)c4ccccc4nc23)CC1`, the TGI in the experiment on CCRF-CEM leukemia, in the experiment on HOP-62 NSCLC, in the experiment on OVCAR-3 ovarian, with OVCAR-4 ovarian, with OVCAR-5 ovarian and with RPMI-8226 leukemia was more than 100 µM in each case. Further, the TGI with SF-268 CNS, in the experiment on SNB-75 CNS and with U251 CNS was more than 100 µM in each case.
Regarding `O=C(Nc1cccs1)c1c(O)[nH]c(=S)[nH]c1=O`, the TGI with CCRF-CEM leukemia, with HOP-62 NSCLC, in the experiment with OVCAR-3 ovarian, in the experiment on OVCAR-4 ovarian, with OVCAR-5 ovarian and in the experiment with RPMI-8226 leukemia was more than 100 µM each time. For the same compound, the TGI in the experiment on SF-268 CNS and with U251 CNS was more than 100 µM throughout.
In general, GI50 refers to the concentration giving 50% growth inhibition. For `COc1ccc2c(c1)C(=O)c1c-2n(CCCN=[N+]=[N-])c(=O)c2cc(N(C)C)ccc12`, the GI50 in the experiment on EKVX NSCLC was more than 100 µM; in the experiment on HOP-62 NSCLC, 10.3 µM; in the experiment with OVCAR-3 ovarian, more than 100 µM; in the experiment with OVCAR-4 ovarian it was more than 100 µM; in the experiment on OVCAR-5 ovarian it was more than 100 µM; in the experiment on RPMI-8226 leukemia it was more than 100 µM. Moreover, the GI50 in the experiment with SF-268 CNS is 22.3 µM; with SNB-75 CNS it was 7.21 µM; in the experiment with U251 CNS, 19.5 µM. Besides, the concentration for total growth inhibition (TGI) with EKVX NSCLC, with HOP-62 NSCLC, in the experiment with OVCAR-3 ovarian, with OVCAR-4 ovarian, in the experiment on OVCAR-5 ovarian and in the experiment with RPMI-8226 leukemia was more than 100 µM each time. In addition, the TGI with SF-268 CNS is more than 100 µM; in the experiment with SNB-75 CNS it was 56.2 µM; in the experiment with U251 CNS it was more than 100 µM.
On to `CCCc1c(CC)c(=N)c2ccccc2n1C`, for which the GI50 with CCRF-CEM leukemia was more than 100 µM; in the experiment with HOP-62 NSCLC, more than 100 µM; in the experiment with OVCAR-3 ovarian it was 59.9 µM; in the experiment on OVCAR-4 ovarian it was 20.1 µM; in the experiment on OVCAR-5 ovarian, more than 100 µM; with RPMI-8226 leukemia, 36.3 µM. The results for the GI50 in the experiment with SF-268 CNS, with SNB-75 CNS and in the experiment on U251 CNS were more than 100 µM, 74.1 µM and 47.9 µM, respectively. Besides, the TGI with CCRF-CEM leukemia, in the experiment with HOP-62 NSCLC, in the experiment with OVCAR-3 ovarian, in the experiment on OVCAR-4 ovarian, with OVCAR-5 ovarian and in the experiment with RPMI-8226 leukemia was more than 100 µM throughout. The TGI in the experiment on SF-268 CNS, in the experiment with SNB-75 CNS and in the experiment with U251 CNS was more than 100 µM each time.
On to `O=C(Nc1ccc(F)cc1)c1ccc(NC2=C(Cl)C(=O)N(Cc3ccccc3)C2=O)cc1`, for which the GI50 with EKVX NSCLC is 27 µM; with OVCAR-3 ovarian, 3.59 µM; in the experiment with OVCAR-4 ovarian, 16.5 µM; with OVCAR-5 ovarian, 9.15 µM; in the experiment with RPMI-8226 leukemia, 3.43 µM; in the experiment with SF-268 CNS, 4.4 µM. Also, the GI50 was 15.9 µM with SNB-75 CNS and 11 µM in the experiment on U251 CNS. Further, the concentration for total growth inhibition (TGI) with EKVX NSCLC was determined as 87 µM; in the experiment with OVCAR-3 ovarian it was 15.3 µM; in the experiment with OVCAR-4 ovarian it was 39.6 µM; in the experiment on OVCAR-5 ovarian, 27.1 µM; in the experiment with RPMI-8226 leukemia it was 12.3 µM; with SF-268 CNS it was 23.6 µM. For the same compound, the TGI was determined as 37.4 µM in the experiment with SNB-75 CNS and 24.1 µM in the experiment with U251 CNS.
Regarding `O=Nc1c(-c2c(O)[nH]c3ccc([N+](=O)[O-])cc23)[nH]c2ccc(O)cc12`, the GI50 in the experiment on CCRF-CEM leukemia is 0.11 µM; in the experiment on HOP-62 NSCLC, 0.524 µM; with OVCAR-3 ovarian, 0.367 µM; in the experiment on OVCAR-4 ovarian it was 0.43 µM; in the experiment with OVCAR-5 ovarian, 1.65 µM; with RPMI-8226 leukemia it was 0.665 µM. The GI50 with SF-268 CNS is 0.474 µM; in the experiment with SNB-75 CNS, 0.0264 µM; in the experiment with U251 CNS, 0.325 µM. For the same compound, the TGI in the experiment with CCRF-CEM leukemia is 12.2 µM; with HOP-62 NSCLC, more than 33.6 µM; with OVCAR-3 ovarian, 3.04 µM; in the experiment on OVCAR-4 ovarian, more than 100 µM; in the experiment on OVCAR-5 ovarian it was 51.1 µM; in the experiment on RPMI-8226 leukemia, 14.7 µM. For the same compound, the TGI was more than 100 µM in the experiment on SF-268 CNS, 3.64 µM with SNB-75 CNS and more than 35.1 µM with U251 CNS.
For `CC1(C)C(=O)C(C)(C)C1=NN`, the TGI in the experiment on HOP-62 NSCLC, with OVCAR-3 ovarian, in the experiment with OVCAR-4 ovarian, in the experiment with OVCAR-5 ovarian, in the experiment on RPMI-8226 leukemia and with SF-268 CNS was more than 100 µM throughout. Besides, the TGI in the experiment with SNB-75 CNS and with U251 CNS was more than 100 µM in each case.
Turning to `O=C(Nc1ccc(Cl)cc1Cl)C(=O)C(C(=O)c1ccc2ccccc2c1)C1OC(=O)c2ccccc21` (stereo not given), the concentration for total growth inhibition (TGI) with EKVX NSCLC was 35.9 µM; in the experiment with HOP-62 NSCLC, 27.8 µM; in the experiment with OVCAR-3 ovarian, 26.1 µM; with OVCAR-4 ovarian it was 35.2 µM; with OVCAR-5 ovarian it was 19.6 µM; in the experiment with RPMI-8226 leukemia it was more than 100 µM. In the experiment on U251 CNS, this compound returned a TGI of 16.2 µM.
As for `CC(=O)/C(=C/n1c(=S)[nH]c2ccccc21)C(=O)Nc1ccccc1C`, the TGI with EKVX NSCLC, in the experiment with HOP-62 NSCLC, in the experiment with OVCAR-3 ovarian, with OVCAR-4 ovarian, in the experiment on OVCAR-5 ovarian and in the experiment on SF-268 CNS was more than 100 µM each time. Moreover, the TGI in the experiment with SNB-75 CNS and with U251 CNS was more than 100 µM each time.
On to `CC12N=NN(c3ccc([N+](=O)[O-])cc3)C1(O)c1ccccc1C2=O` (stereo not given), for which the TGI with EKVX NSCLC, in the experiment with HOP-62 NSCLC, with OVCAR-3 ovarian, in the experiment on RPMI-8226 leukemia, in the experiment with SF-268 CNS and in the experiment on U251 CNS was more than 100 µM throughout.
Take `O=C(O)C1C2CCC(O2)C1C(=O)N1CCCCC1` (stereo not given): the TGI was determined as 29.2 µM with EKVX NSCLC; 35.8 µM in the experiment with HOP-62 NSCLC; 4.66 µM in the experiment with OVCAR-3 ovarian; 24.4 µM in the experiment on OVCAR-4 ovarian; 62.8 µM in the experiment with OVCAR-5 ovarian; 7.88 µM in the experiment on RPMI-8226 leukemia. Also, the TGI in the experiment on SF-268 CNS came out at 28.9 µM; with SNB-75 CNS it was 17.2 µM; in the experiment with U251 CNS, 17 µM.
